Assay results as given in PubChem BioAssay AID1963847 (Molecular Pharmacology Branch, DTP, NCI, 2024).
pIC50: −log10 of the molar value.

Test system: 415267-285-R-J2-PDC complex spheroid viability
Assay: Anticancer human tumor 415267-285-R-J2-PDC patient-derived breast carcinoma cell line growth inhibition [POLQ]
Details: for pIC50: curve of first compound; for viability, T/C: stronger effect = lower value; active = viability on the fitted dose curve at most 10% of control; inactive = the rest
Method: Multicellular complex tumor spheroid response to Polymerase (POL) inhibitors (novobiocin, ART-558, RP6685) in combination with a variety of drugs and investigational agents in selected tumor cell lines
The POL inhibitors (novobiocin, ART-558, and RP6685) were evaluated both individually and in combination with standard of care and investigational anticancer small molecules within a complex spheroid model of solid tumors. . Complex spheroids include a stromal component modeled by human endothelial cells (HUVEC) and fibroblasts modeled by human mesenchymal stem cells (MSCs). The concentration ranges selected for each drug and investigational agent were based upon clinically achievable concentrations if the clinical Cmax of the agent was known.
Compounds. The drugs and investigational agents: novobiocin (NSC847541), ART-558 (NSC835418), RP-6685 (NSC848927), peposertib (NSC802822), ceralasertib (NSC780249), elimusertib (NSC800525), camonsertib (NSC841442), AZD-1390 (NSC803789), olaparib (NSC753686), talazoparib (NSC767125), rucaparib (NSC756644), sotorasib (NSC818433), MRTX-1133 (NSC836407), SN-38 (NSC673596), topotecan (NSC609699), epotoside (NSC141540), doxorubicin (NSC123127), gemcitabine (NSC613327), 5-fluorouracil (NSC19893), paclitaxel (NSC125973), vemurafenib (NSC761431), MSA-2 (NSC828583), SN-011 (NSC837082), adavosertib (NSC754352), prexasertib (NSC758257), carboplatin (NSC241240) and oxaliplatin (NSC266046), were obtained from the National Cancer Institute (NCI) Developmental Therapeutics Program Chemical Repository (21). The FDA-approved anticancer drug set is available from the Developmental Therapeutics Program at https://dtp.cancer.gov/organization/dscb/obtaining/. […] The stock solutions were prepared in dimethyl sulfoxide (DMSO, Sigma-Aldrich, St. Louis, MO, cat. D2650), except for the platinum compounds which were prepared in saline (Quality Biological, Gaithersburg, MD, cat. 114-055-101), at 800-fold the tested concentration and stored at -70 degrees C prior to their use. All drugs and investigational agents were tested over a range starting from a high concentration at or near the clinical Cmax and decreasing in half-log increments. If the clinical Cmax for an agent had not been determined, the highest concentration tested was 10 microM, except for SN-38, which was tested at a high concentration of 1 microM.
Cell Culture. All cells were maintained in an incubator at 37 degrees C and 5% CO2 with 95% humidity. The PDC lines were cultured according to standard operating procedures established by the NCI PDMR (https://pdmr.cancer.gov). Table 3 of the manuscript, lists the cell lines along with the number of the three cell types plated to form the mct-spheroids and media for tumor cell growth. After thawing, all PDC lines, except 997537-175-T-J1-PDC and 415267-285-R-J2-PDC, were cultured in Matrigel-coated flasks prepared with a working solution of 1X Ham's F-12 nutrient mix, without supplementation (Thermo Fisher Scientific, cat. 11765054), 100 U/mL penicillin-streptomycin (Thermo Fisher Scientific, cat. 15140122), and 2.5% Matrigel (Corning Inc., Corning, NY, cat. 354248) for the first three passages. The two PDC lines 997537-175-T-J1-PDC and 415267-285-R-J2-PDC were cultured on uncoated flasks. The 857933-349-R-J2-PDC line was cultured in 6C/Colon 1B media containing advanced DMEM/F-12 (Thermo Fisher Scientific, cat. 12634028), 10 mM HEPES (Thermo Fisher Scientific, cat. 15630080), 1X GlutaMAX supplement (Thermo Fisher Scientific, cat. 35050061), 0.1 mg/mL primocin (InvivoGen, San Diego, CA, cat. ant-pm-2), 10% defined fetal bovine serum, heat inactivated (HyClone Laboratories Inc., Logan, UT, cat. SH30070.03HI), 50% L-WRN conditioned media (ATCC, cat. CRL-3276), 1.25 mM N-Acetyl-L-cysteine (Sigma-Aldrich, cat. A9165), 10 mM nicotinamide (Sigma-Aldrich, cat. N0636), 1X B-27 supplement (Thermo Fisher Scientific, cat. 17504044), 1X N-2 supplement (Thermo Fisher Scientific, cat. […]

[1] = second compound 0.0316 µM, first compound 0.0316 µM
[2] = second compound 0.0316 µM, first compound 0.1 µM
[3] = second compound 0.0316 µM, first compound 0.316 µM
[4] = second compound 0.0316 µM, first compound 1 µM
[5] = second compound 0.0316 µM, first compound 3.16 µM
[6] = second compound 0.0316 µM, first compound 10 µM
[7] = second compound 0.1 µM, first compound 0.0316 µM
[8] = second compound 0.1 µM, first compound 0.1 µM
[9] = second compound 0.1 µM, first compound 0.316 µM
[10] = second compound 0.1 µM, first compound 1 µM
[11] = second compound 0.1 µM, first compound 3.16 µM
[12] = second compound 0.1 µM, first compound 10 µM
[13] = second compound 0.316 µM, first compound 0.0316 µM
[14] = second compound 0.316 µM, first compound 0.1 µM
[15] = second compound 0.316 µM, first compound 0.316 µM
[16] = second compound 0.316 µM, first compound 1 µM
[17] = second compound 0.316 µM, first compound 3.16 µM
[18] = second compound 0.316 µM, first compound 10 µM
[19] = second compound 1 µM, first compound 0.0316 µM
[20] = second compound 1 µM, first compound 0.1 µM
[21] = second compound 1 µM, first compound 0.316 µM
[22] = second compound 1 µM, first compound 1 µM
[23] = second compound 1 µM, first compound 3.16 µM
[24] = second compound 1 µM, first compound 10 µM
[25] = second compound 3.16 µM, first compound 0.0316 µM
[26] = second compound 3.16 µM, first compound 0.1 µM
[27] = second compound 3.16 µM, first compound 0.316 µM
[28] = second compound 3.16 µM, first compound 1 µM
[29] = second compound 3.16 µM, first compound 3.16 µM
[30] = second compound 3.16 µM, first compound 10 µM
[31] = second compound 10 µM, first compound 0.0316 µM
[32] = second compound 10 µM, first compound 0.1 µM
[33] = second compound 10 µM, first compound 0.316 µM
[34] = second compound 10 µM, first compound 1 µM
[35] = second compound 10 µM, first compound 3.16 µM
[36] = second compound 10 µM, first compound 10 µM
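Note: spheroids exposed to compounds for one week before readout.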
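Throughout, for viability, T/C: luminescence used as stand-in measure of viable cells.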

CNCc1ccc(-c2[nH]c3cc(F)cc4c3c2CCNC4=O)cc1 + COC1C(OC(N)=O)C(O)C(Oc2ccc3c(O)c(NC(=O)c4ccc(O)c(CC=C(C)C)c4)c(=O)oc3c2C)OC1(C)C
inactive: viability, T/C [1] 114% | viability, T/C [2] 104% | viability, T/C [3] 99% | viability, T/C [4] 113% | viability, T/C [5] 117% | viability, T/C [6] 113% | viability, T/C [7] 97.7% | viability, T/C [8] 103% | viability, T/C [9] 117% | viability, T/C [10] 107% | viability, T/C [11] 106% | viability, T/C [12] 106% | viability, T/C [13] 95.7% | viability, T/C [14] 109% | viability, T/C [15] 95.3% | viability, T/C [16] 114% | viability, T/C [17] 102% | viability, T/C [18] 98.8% | viability, T/C [19] 115% | viability, T/C [20] 105% | viability, T/C [21] 97.8% | viability, T/C [22] 127% | viability, T/C [23] 102% | viability, T/C [24] 98.7% | viability, T/C [25] 95% | viability, T/C [26] 99.4% | viability, T/C [27] 120% | viability, T/C [28] 116% | viability, T/C [29] 102% | viability, T/C [30] 104% | viability, T/C [31] 104% | viability, T/C [32] 108% | viability, T/C [33] 104% | viability, T/C [34] 106% | viability, T/C [35] 99.9% | viability, T/C [36] 111%
< 5.00: pIC50 (second compound 0.0316 µM) | pIC50 (second compound 0.1 µM) | pIC50 (second compound 0.316 µM) | pIC50 (second compound 1 µM) | pIC50 (second compound 3.16 µM) | pIC50 (second compound 10 µM)

CC1COCCN1c1cc(C2(O)CC3CCC(C2)O3)c2cnn(-c3ccn[nH]3)c2n1 (centres undefined) + Cc1cccc(N(C)C(=O)C2C(O)CCN2c2nc(C)cc(C(F)(F)F)c2C#N)c1
inactive: viability, T/C [1] 18.2% | viability, T/C [7] 17.1% | viability, T/C [13] 17.9% | viability, T/C [19] 24.7% | viability, T/C [25] 20.4% | viability, T/C [31] 21.4%
active: viability, T/C [2] 7.78% | viability, T/C [3] 5.17% | viability, T/C [4] 4.79% | viability, T/C [5] 4.69% | viability, T/C [6] 4.06% | viability, T/C [8] 6.52% | viability, T/C [9] 4.78% | viability, T/C [10] 4.34% | viability, T/C [11] 5.05% | viability, T/C [12] 5.28% | viability, T/C [14] 5.44% | viability, T/C [15] 5.64% | viability, T/C [16] 4.91% | viability, T/C [17] 4.67% | viability, T/C [18] 4.41% | viability, T/C [20] 6.22% | viability, T/C [21] 4.58% | viability, T/C [22] 4.12% | viability, T/C [23] 4.85% | viability, T/C [24] 5.19% | viability, T/C [26] 6.14% | viability, T/C [27] 5.01% | viability, T/C [28] 4.84% | viability, T/C [29] 4.41% | viability, T/C [30] 4.56% | viability, T/C [32] 6.79% | viability, T/C [33] 5.41% | viability, T/C [34] 5.44% | viability, T/C [35] 4.9% | viability, T/C [36] 4.36%
> 7.50: pIC50 (second compound 0.0316 µM) | pIC50 (second compound 0.1 µM) | pIC50 (second compound 0.316 µM) | pIC50 (second compound 1 µM) | pIC50 (second compound 3.16 µM) | pIC50 (second compound 10 µM)
